For the assay, the target named is T1, human CXCR3 (N-delta 4) (Homo sapiens, UniProt P49682).
T1 construct: CD8 leader (N); Flag; expressed in transfected cells; membranes prepared
T1 sequence (P49682 5-368 limits assumed): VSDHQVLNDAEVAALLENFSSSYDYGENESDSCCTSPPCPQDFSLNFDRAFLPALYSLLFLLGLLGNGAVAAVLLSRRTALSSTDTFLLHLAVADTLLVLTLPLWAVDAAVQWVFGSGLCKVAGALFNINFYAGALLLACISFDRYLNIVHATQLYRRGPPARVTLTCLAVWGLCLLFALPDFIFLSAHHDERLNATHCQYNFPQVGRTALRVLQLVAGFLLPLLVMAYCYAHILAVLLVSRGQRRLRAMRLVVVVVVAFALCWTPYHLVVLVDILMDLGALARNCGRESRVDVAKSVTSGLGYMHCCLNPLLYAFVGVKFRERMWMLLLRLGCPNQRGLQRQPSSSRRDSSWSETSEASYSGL
Nature of the assay: Human CXCR3 (N-delta 4) Scintillation Proximity Assay (SPA), [125I] IP-10 binding to Ba/F3-hCXCR3 membranes. To be noted: IC50 rating, Table 1; read-out: IC50.

Some results are limits rather than exact numbers.

With `CC[C@H]1CN(c2nc(N)c(C(=O)NC(=N)NC)nc2Cl)CCN1C1CCN(C(=O)c2ccc(F)c(F)c2)CC1` [compound 398], the IC50 is less than 25 nM. For `CC[C@H]1CN(c2nc(N)c(C(=O)NCCNS(C)(=O)=O)nc2Cl)CCN1C1CCN([C@H](C(=O)OC)c2ccc(Cl)cc2)CC1` [compound 251] the value was more than 100 nM; for `CCNC(=O)c1nc(Cl)c(N2CCN(C3CCN(C(C)(C)c4ccc(Cl)cc4)CC3)[C@@H](CC)C2)nc1N` [compound 104], 25 to 100 nM. With `CC[C@H]1CN(c2nc(N)c(C(=O)NCCO)nc2Cl)CCN1C1CCN(Cc2ccc(Cl)cc2OCCNS(=O)(=O)N(C)C)CC1` [compound 147] the figure was less than 25 nM; with `CC[C@H]1CN(c2nc(N)c(C(=O)OC)nc2Cl)CCN1C1CCN(Cc2ccc(Cl)cc2CC#N)CC1` [compound 299], 25 to 100 nM; with `CC[C@H]1CN(c2nc(N)c(C(=O)NCCO)nc2Cl)CCN1C1CCN(Cc2ccc(OC(F)(F)F)cc2O)CC1` [compound 166], less than 25 nM.

For the compound `CC[C@H]1CN(c2nc(N)c(C(=O)NCCO)nc2Cl)CCN1C1CCN(Cc2ccc(Cl)cc2OCCOC)CC1` [compound 115], the IC50 is less than 25 nM. As for `CCNC(=O)NCCc1cc(Cl)ccc1CN1CCC(N2CCN(c3nc(N)c(C(N)=O)nc3Cl)C[C@@H]2CC)CC1` [compound 47], the IC50 was more than 100 nM.

For the compound `CC[C@H]1CN(c2nc(N)c(C(=O)NC)nc2Cl)CCN1C1CCN(Cc2ccc(-n3cncn3)cc2)CC1` [compound 75], the 50% inhibitory concentration (IC50) was in the range of 25 to 100 nM. Consider `CC[C@H]1CN(c2ncc(C(=O)NC3CC3)nc2C(F)(F)F)CCN1C1CCN(C(=O)c2ccc(Cl)cc2)CC1` [compound 489], for which the IC50 is less than 25 nM. With `CC[C@H]1CN(c2nc(N)c(C(N)=O)nc2Cl)CCN1C1CCN(Cc2ccc(-n3cccn3)cc2)CC1` [compound 25] the figure was 25 to 100 nM; with `CC[C@H]1CN(c2nc(N)c(C(=O)NCCO)nc2Cl)CCN1C1CCN(Cc2ccc(C#N)cc2O)CC1` [compound 180], 25 to 100 nM; with `CC[C@H]1CN(c2nc(N)c(C(=O)NC3CC3)nc2Cl)CCN1C1CCN(Cc2ccc(Cl)cc2F)CC1` [compound 83], less than 25 nM. Turning to `CC[C@H]1CN(c2nc(N)c(C(N)=O)nc2Cl)CCN1C1CCN(Cc2ccc(Cl)cc2CCN)CC1` [compound 6], the IC50 was less than 25 nM. For `CC[C@H]1CN(c2nc(N)c(C(=O)NCCNS(N)(=O)=O)nc2Cl)CCN1C1CCN([C@@H](C(=O)OC)c2ccc(Cl)cc2)CC1` [compound 261], the half-maximal inhibitory concentration (IC50) lay within 25 to 100 nM. With `COC(=O)c1nc(Cl)c(N2C[C@H](C)N(C3CCN(Cc4ccc(Cl)cc4F)CC3)C[C@H]2C)nc1N` [compound 301] the figure was more than 100 nM; with `CC[C@H]1CN(c2nc(N)c(C(=O)N[C@@H]3CCCNC3=O)nc2Cl)CCN1C1CCN(Cc2ccc(C#N)cc2)CC1` [compound 210], more than 100 nM. With `CC[C@H]1CN(c2nc(N)c(C(=O)NCCO)nc2Cl)CCN1C1CCN(Cc2ccc(Cl)cc2OCCNS(=O)(=O)C(F)(F)F)CC1` [compound 132], the IC50 was less than 25 nM.

As to `CC[C@H]1CN(c2nc(N)c(C(=O)OC)nc2Cl)CCN1C1CCN(Cc2ccc(Cl)cc2CCNC(=O)OC(C)(C)C)CC1` [compound 296], the IC50 is less than 25 nM. With `CC[C@H]1CN(c2nc(N)c(C(=O)NC3CC3)nc2Cl)CCN1C1CCN(Cc2ccc(Cl)cc2)CC1O` (stereo partly drawn) [compound 95] the figure was 25 to 100 nM. Turning to `CC[C@H]1CN(c2nc(N)c(C(=O)NC)nc2Cl)CCN1C1CCN(C(=O)c2ccc(C#N)cc2)CC1` [compound 340], the 50% inhibitory concentration (IC50) was less than 25 nM. `CC[C@H]1CN(c2nc(N)c(C(N)=O)nc2Cl)CCN1C1CCN([C@@H](C(=O)NC)c2ccc(Cl)cc2)CC1` [compound 50]: the IC50 was more than 100 nM. Regarding `CC[C@H]1CN(c2nc(N)c(C(=O)NC[C@@H](C)O)nc2Cl)CCN1C1CCN(Cc2ccc(C#N)cc2)CC1` [compound 221], the 50% inhibitory concentration (IC50) was less than 25 nM. For `CC[C@H]1CN(c2ncc(C(N)=O)nc2C)[C@H](C)CN1C1CCN(Cc2ccc(OC(F)(F)F)cc2)CC1` [compound 466] the value was less than 25 nM.

The values above are taken from patent US7868005B2, “Pyrazinyl substituted piperazine-piperidines with CXCR3 antagonist activity” (Schering Corporation, priority 2005, dated 2011).
